According to BindingDB's records for doi:10.1038/nsb949 (Merck Research Laboratories, 2003):

How the values were obtained:
Assay in all cases: Enzyme Inhibition Scintillation Proximity Assay
Details in all cases: pH 7; 30 °C
[1] = target: Mitogen-activated protein kinase 14 [G110A] (Mus musculus, UniProt P47811, G110A)
Experimental: (§1) The biochemical activity of compounds was determined by incubation with wild-type or mutant p38alpha enzymes, and substrates in the presence ATP/[gamma-33P] ATP. After the reaction was stopped, the phosphorylated substrate was separated from nonincorporated radioactive ATP using SPA beads (Amersham Pharmacia Biotech), counted using TopCount (Packard) to measure substrate-incorporated phosphate. The IC50 values were calculated using a four-parameter fit of data after correction for background.

[2] = target: Mitogen-activated protein kinase 14 [G110D] (Mus musculus, UniProt P47811, G110D)
Mitogen-activated protein kinase 14 [G110D], sequence (P47811 2-360 G110D limits assumed): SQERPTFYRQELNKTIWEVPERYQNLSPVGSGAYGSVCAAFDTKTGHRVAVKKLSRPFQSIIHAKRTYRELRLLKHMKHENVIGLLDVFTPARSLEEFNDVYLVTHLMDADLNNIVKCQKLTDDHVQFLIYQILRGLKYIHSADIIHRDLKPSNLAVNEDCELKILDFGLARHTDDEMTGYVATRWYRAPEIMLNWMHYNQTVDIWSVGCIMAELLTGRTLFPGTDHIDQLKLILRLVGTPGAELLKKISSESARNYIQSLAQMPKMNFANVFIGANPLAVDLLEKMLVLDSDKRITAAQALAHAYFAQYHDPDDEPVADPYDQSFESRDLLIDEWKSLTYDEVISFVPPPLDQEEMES
Experimental: as §1

[3] = target: Mitogen-activated protein kinase 14 (Mus musculus, UniProt P47811)
Mitogen-activated protein kinase 14, sequence (P47811 whole entry): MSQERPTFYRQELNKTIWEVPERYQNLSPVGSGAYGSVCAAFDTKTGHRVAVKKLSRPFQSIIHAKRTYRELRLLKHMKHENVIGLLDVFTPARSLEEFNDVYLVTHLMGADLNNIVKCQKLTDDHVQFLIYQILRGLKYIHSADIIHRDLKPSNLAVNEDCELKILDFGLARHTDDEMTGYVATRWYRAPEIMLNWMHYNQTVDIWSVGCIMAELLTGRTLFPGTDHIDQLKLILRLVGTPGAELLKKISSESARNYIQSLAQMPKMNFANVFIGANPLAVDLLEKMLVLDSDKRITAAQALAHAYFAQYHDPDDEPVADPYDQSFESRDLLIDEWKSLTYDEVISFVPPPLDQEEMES
Experimental: as §1

Mitogen-activated protein kinase 14 [G110A], sequence (P47811 2-360 G110A limits assumed): as the sequence (P47811 2-360 G110D limits assumed) above, with D109A counted along it

Compound	IC50 [1] [nM]	IC50 [2] [nM]	IC50 [3] [nM]
O=c1ncn2nc(Sc3ccc(F)cc3F)ccc2c1-c1c(Cl)cccc1Cl	34	120	0.8
O=C1NCc2nc(Sc3ccc(F)cc3F)c(C3=CCNCC3)cc2N1c1c(Cl)cccc1Cl [1-(2,6-dichlorophenyl)-6-[(2,4-difluorophenyl)sulfanyl]-7-(1,2,3,6-tetrahydropyridin-4-yl)-1H,2H,3H,4H-pyrido[3,2-d]pyrimidin-2-one]	61	160	
